Laboratory results published in patent US8445492B2, “Method for inhibiting growth of cancer cells and cell telomere and diseases of cell proliferation by using heteroannelated anthraquinone derivative compounds” (National Defense Medical Center, priority 2008, dated 2013).

How the values were obtained:
Assay type in all cases: cell-based
SF-268 = assay: NCI DTP in-vitro dose response, CNS Cancer
SF-295 = assay: NCI DTP in-vitro dose response, CNS Cancer
SF-539 = assay: NCI DTP in-vitro dose response, CNS Cancer
SNB-19 = assay: NCI DTP in-vitro dose response, CNS Cancer
SNB-75 = assay: NCI DTP in-vitro dose response, CNS Cancer
U251 = assay: NCI DTP in-vitro dose response, CNS Cancer
COLO 205 = assay: NCI DTP in-vitro dose response, Colon Cancer
HCC-2998 = assay: NCI DTP in-vitro dose response, Colon Cancer
HCT-116 = assay: NCI DTP in-vitro dose response, Colon Cancer
HCT-15 = assay: NCI DTP in-vitro dose response, Colon Cancer
HT29 = assay: NCI DTP in-vitro dose response, Colon Cancer
KM12 = assay: NCI DTP in-vitro dose response, Colon Cancer
SW-620 = assay: NCI DTP in-vitro dose response, Colon Cancer

O=C1c2ccccc2C(=O)c2c1ccc1nccnc21 [TABLE 5-4]
CC50 (SF-268): > 100 µM
TGI (SF-268): >1.00E−4
Percent Growth (SF-268; Log10 Concentration −4.0): 1%
Percent Growth (SF-268; Log10 Concentration −5.0): 34%
Percent Growth (SF-268; Log10 Concentration −6.0): 86%
Percent Growth (SF-268; Log10 Concentration −7.0): 92%
Percent Growth (SF-268; Log10 Concentration −8.0): 96%
GI50 (SF-268; read-out: GI50): 4.98 µM
CC50 (SF-295): > 100 µM
TGI (SF-295): 3.23E−5
Percent Growth (SF-295; Log10 Concentration −4.0): −24%
Percent Growth (SF-295; Log10 Concentration −5.0): 25%
Percent Growth (SF-295; Log10 Concentration −6.0): 95%
Percent Growth (SF-295; Log10 Concentration −7.0): 83%
Percent Growth (SF-295; Log10 Concentration −8.0): 90%
GI50 (SF-295; read-out: GI50): 4.35 µM
CC50 (SF-539): > 100 µM
TGI (SF-539): 5.37E−5
Percent Growth (SF-539; Log10 Concentration −4.0): −9%
Percent Growth (SF-539; Log10 Concentration −5.0): 23%
Percent Growth (SF-539; Log10 Concentration −6.0): 64%
Percent Growth (SF-539; Log10 Concentration −7.0): 88%
Percent Growth (SF-539; Log10 Concentration −8.0): 90%
GI50 (SF-539; read-out: GI50): 2180 nM
CC50 (SNB-19): > 100 µM
TGI (SNB-19): >1.00E−4
Percent Growth (SNB-19; Log10 Concentration −4.0): 4%
Percent Growth (SNB-19; Log10 Concentration −5.0): 57%
Percent Growth (SNB-19; Log10 Concentration −6.0): 90%
Percent Growth (SNB-19; Log10 Concentration −7.0): 93%
Percent Growth (SNB-19; Log10 Concentration −8.0): 94%
GI50 (SNB-19; read-out: GI50): 13.4 µM
CC50 (SNB-75): > 100 µM
TGI (SNB-75): >1.00E−4
Percent Growth (SNB-75; Log10 Concentration −4.0): 11%
Percent Growth (SNB-75; Log10 Concentration −5.0): 53%
Percent Growth (SNB-75; Log10 Concentration −6.0): 76%
Percent Growth (SNB-75; Log10 Concentration −7.0): 87%
Percent Growth (SNB-75; Log10 Concentration −8.0): 83%
GI50 (SNB-75; read-out: GI50): 11.9 µM
CC50 (U251): > 100 µM
TGI (U251): 4.29E−5
Percent Growth (U251; Log10 Concentration −4.0): −21%
Percent Growth (U251; Log10 Concentration −5.0): 35%
Percent Growth (U251; Log10 Concentration −6.0): 89%
Percent Growth (U251; Log10 Concentration −7.0): 93%
Percent Growth (U251; Log10 Concentration −8.0): 96%
GI50 (U251; read-out: GI50): 5.38 µM

CCc1nc2ccc3c(c2[nH]1)C(=O)c1ccccc1C3=O [TABLE 4-3]
CC50 (COLO 205): > 100 µM
TGI (COLO 205): >1.00E−4
Percent Growth (COLO 205; Log10 Concentration −4.0): 9%
Percent Growth (COLO 205; Log10 Concentration −5.0): 41%
Percent Growth (COLO 205; Log10 Concentration −6.0): 85%
Percent Growth (COLO 205; Log10 Concentration −7.0): 93%
Percent Growth (COLO 205; Log10 Concentration −8.0): 93%
GI50 (COLO 205; read-out: GI50): 6.36 µM
CC50 (HCC-2998): > 100 µM
TGI (HCC-2998): >1.00E−4
Percent Growth (HCC-2998; Log10 Concentration −4.0): 22%
Percent Growth (HCC-2998; Log10 Concentration −5.0): 59%
Percent Growth (HCC-2998; Log10 Concentration −6.0): 90%
Percent Growth (HCC-2998; Log10 Concentration −7.0): 94%
Percent Growth (HCC-2998; Log10 Concentration −8.0): 88%
GI50 (HCC-2998; read-out: GI50): 17.4 µM
CC50 (HCT-116): > 100 µM
TGI (HCT-116): >1.00E−4
Percent Growth (HCT-116; Log10 Concentration −4.0): 11%
Percent Growth (HCT-116; Log10 Concentration −5.0): 42%
Percent Growth (HCT-116; Log10 Concentration −6.0): 78%
Percent Growth (HCT-116; Log10 Concentration −7.0): 95%
Percent Growth (HCT-116; Log10 Concentration −8.0): 92%
GI50 (HCT-116; read-out: GI50): 6.1 µM
CC50 (HCT-15): > 100 µM
TGI (HCT-15): >1.00E−4
Percent Growth (HCT-15; Log10 Concentration −4.0): 8%
Percent Growth (HCT-15; Log10 Concentration −5.0): 27%
Percent Growth (HCT-15; Log10 Concentration −6.0): 69%
Percent Growth (HCT-15; Log10 Concentration −7.0): 93%
Percent Growth (HCT-15; Log10 Concentration −8.0): 90%
GI50 (HCT-15; read-out: GI50): 2820 nM
CC50 (HT29): > 100 µM
TGI (HT29): >1.00E−4
Percent Growth (HT29; Log10 Concentration −4.0): 11%
Percent Growth (HT29; Log10 Concentration −5.0): 48%
Percent Growth (HT29; Log10 Concentration −6.0): 88%
Percent Growth (HT29; Log10 Concentration −7.0): 100%
Percent Growth (HT29; Log10 Concentration −8.0): 94%
GI50 (HT29; read-out: GI50): 8.84 µM
CC50 (KM12): > 100 µM
TGI (KM12): >1.00E−4
Percent Growth (KM12; Log10 Concentration −4.0): 13%
Percent Growth (KM12; Log10 Concentration −5.0): 43%
Percent Growth (KM12; Log10 Concentration −6.0): 89%
Percent Growth (KM12; Log10 Concentration −7.0): 94%
Percent Growth (KM12; Log10 Concentration −8.0): 98%
GI50 (KM12; read-out: GI50): 7.15 µM
CC50 (SW-620): > 100 µM
TGI (SW-620): >1.00E−4
Percent Growth (SW-620; Log10 Concentration −4.0): 6%
Percent Growth (SW-620; Log10 Concentration −5.0): 39%
Percent Growth (SW-620; Log10 Concentration −6.0): 89%
Percent Growth (SW-620; Log10 Concentration −7.0): 96%
Percent Growth (SW-620; Log10 Concentration −8.0): 99%
GI50 (SW-620; read-out: GI50): 5.97 µM
